15 compounds from patent US9346815B2, “5-chloro-2-difluoromethoxyphenyl pyrazolopyrimidine compounds, compositions and methods of use thereof” (Genentech, Inc., priority 2014, dated 2016) can be followed below.

As usually defined, the Ki is the dissociation constant of the complex between target and ligand, obtained from inhibition or displacement.

Molecules are shown by their SMILES. Bounds are passed on as bounds.

The nature of data set [1]: Clearance assay: mouse intravenous (IV) clearance. To be noted: female BALB/c mice; for IV Mouse CL, % of liver blood flow: clearance as % of mouse liver blood flow; for clearance: mouse, read-out: IV Mouse CL. Format: in vivo. An excerpt: In certain instances high systemic clearance of a drug substance may be of benefit. For example, in the treatment of pulmonary diseases it may be beneficial to have high drug concentrations in the lung, with lower concentrations in the bloodstream or peripheral organs. In such cases, it may be advantageous to administer a drug substance with high systemic clearance via the inhaled delivery route. This approach may maximize pharmacologic activity of the drug substance in the lung while minimizing the possibility of on-target toxicity elsewhere in the body. The functional groups appended to the 5-chloro-2-difluoromethoxyphenyl pyrazolopyrimidine scaffold affect systemic clearance.
Female BALB/c mice were obtained from Charles River Labs (Hollister, Calif. USA). Twelve animals were given a single IV dose of 1 mg/kg of compounds via the tail vein. A representative dose solution was prepared as follows: the compound was dissolved in a mixture of 5% dimethylsulfoxide (DMSO), 35% polyethylene glycol (PEG 400), and 60% water (v/v/v), respectively, and administered at a dosing volume of 5 mL/kg. Mice weighed approximately 20-25 g at the start of the study. After intravenous administration of compounds, each animal was bled twice via retro-orbital and cardiac puncture. PK time points were collected at 2 min, 5 min, 15 min, 30 min, 1 hr, 2 hr, 4 hr, and 8 hr post-dose. Plasma samples were stored at approximately −80° C. until thawed for LC-MS/MS analysis. PK data analysis was performed on mean plasma concentration-time data and PK parameters were determined by non compartmental methods using WinNonlin® Enterprise, version 5.2.1 (Pharsight Corporation; Mountain View, Calif.).

Data set [2] relates to JAK1-dependent STAT6 phosphorylation downstream of IL-13 stimulation in BEAS-2B human bronchial epithelial cells. The data set can be described thus: JAK1 pathway assay in BEAS-2B cells (IL-13-pSTAT6, MSD). To be noted: read-out: IL13-pSTAT6 EC50 (uM)_BEAS-2B. The format is cell-based. A digest of the protocol:
(§1)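 Cells were preincubated with compounds (0.2% DMSO) for 30 min (TF-1, GM-CSF-starved overnight, serum-free OptiMEM, 300,000 cells/well) or 1 h (BEAS-2B, complete medium, 100,000 cells/well) at 37 °C.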

The target of data set [3] is isolated recombinant JAK2 kinase domain (Homo sapiens (Human), UniProt O60674). The data set can be described thus: JAK2 enzyme assay (Caliper LabChip, peptide phosphorylation). The format is biochemical. To be noted: 25 μM ATP.
Data set [4] deals with isolated recombinant JAK1 kinase domain (Homo sapiens (Human), UniProt P23458). Description: JAK1 enzyme assay (Caliper LabChip, peptide phosphorylation). Format: biochemical. To be noted: isolated recombinant JAK1 kinase domain, 25 μM ATP.
The test system of data set [5] is JAK1-dependent STAT6 phosphorylation downstream of IL-13 stimulation in TF-1 human erythroleukemia cells. Description: JAK1 pathway assay in TF-1 cells (IL-13-pSTAT6, MSD). Format: cell-based. Conditions: Homo sapiens, TF-1, TF-1 cells, read-out: IL13-pSTAT6 EC50_TF-1. A digest of the protocol: as §1
[6] abbreviates: plasma, single IV dose of 1 mg/kg via the tail vein.

Chain of isolated recombinant JAK1 kinase domain (P23458 875-1153): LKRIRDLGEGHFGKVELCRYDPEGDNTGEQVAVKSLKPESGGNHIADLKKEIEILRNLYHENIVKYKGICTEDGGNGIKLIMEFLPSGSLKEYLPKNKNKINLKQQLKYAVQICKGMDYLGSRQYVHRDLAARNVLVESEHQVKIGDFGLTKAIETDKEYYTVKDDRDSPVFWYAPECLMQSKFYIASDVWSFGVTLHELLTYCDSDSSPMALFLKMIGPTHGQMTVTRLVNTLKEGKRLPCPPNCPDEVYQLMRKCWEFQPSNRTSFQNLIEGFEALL
Chain of isolated recombinant JAK2 kinase domain (O60674 849-1124): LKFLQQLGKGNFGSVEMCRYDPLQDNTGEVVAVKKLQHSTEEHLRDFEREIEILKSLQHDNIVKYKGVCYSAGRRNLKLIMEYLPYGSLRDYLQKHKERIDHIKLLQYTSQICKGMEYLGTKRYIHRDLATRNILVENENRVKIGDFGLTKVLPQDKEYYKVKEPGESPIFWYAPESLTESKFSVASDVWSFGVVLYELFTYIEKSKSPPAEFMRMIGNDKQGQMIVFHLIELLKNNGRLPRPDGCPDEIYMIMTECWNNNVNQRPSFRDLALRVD

`O=C(Nc1cn(CC(=O)N2CCC(CN3CCOCC3)CC2)nc1-c1cc(Cl)ccc1OC(F)F)c1cnn2cccnc12` [Example 348, N-[3-[5-chloro-2-(difluoromethoxy)phenyl]-1-[2-[4-(morpholin-4-ylmethyl)piperidin-1-yl]-2-oxoethyl]-1H-pyrazol-4-yl]pyrazolo[1,5-a]pyrimidine-3-carboxamide]: the “IV Mouse CL, % of liver blood flow” value in data set [1] (single IV dose of 1 mg/kg) is above 100%. Further, in data set [1] (setting [6]), the clearance came to 143 mL/min/kg. For the same compound, the EC50 in data set [2] turned out to be 0.012 µM. The Ki in data set [3] came out at 1.02 nM; in data set [4], 0.4 nM.

Consider `COCCNCCn1cc(NC(=O)c2cnn3cccnc23)c(-c2cc(Cl)ccc2OC(F)F)n1` [Example 294, N-[3-[5-chloro-2-(difluoromethoxy)phenyl]-1-[2-(2-methoxyethylamino)ethyl]pyrazol-4-yl]pyrazolo[1,5-a]pyrimidine-3-carboxamide], for which the “IV Mouse CL, % of liver blood flow” value in data set [1] (single IV dose of 1 mg/kg) is on record as above 100%. For the same compound, the clearance in data set [1] (setting [6]) was 95 mL/min/kg. For the same compound, the EC50 came out at 0.0367 µM in data set [2] and 6.2 nM in data set [5]. In addition, the Ki in data set [3] is 0.57 nM; in data set [4] it was 0.89 nM.

Take `CN(CC(C)(F)F)C1CCN(C(=O)Cn2cc(NC(=O)c3cnn4cccnc34)c(-c3cc(Cl)ccc3OC(F)F)n2)CC1` [Example 134, N-[3-[5-chloro-2-(difluoromethoxy)phenyl]-1-[2-[4-[2,2-difluoropropyl(methyl)amino]-1-piperidyl]-2-oxo-ethyl]pyrazol-4-yl]pyrazolo[1,5-a]pyrimidine-3-carboxamide]: the “IV Mouse CL, % of liver blood flow” value in data set [1] (single IV dose of 1 mg/kg) is given as above 100%. Besides, the clearance in data set [1] (setting [6]) stood at 222 mL/min/kg. Besides, the EC50 was 0.0118 µM in data set [2] and 2.3 nM in data set [5]. Further, the Ki in data set [3] was determined as 0.69 nM; in data set [4], 0.33 nM.

As to `CC(C)(O)Cn1cc(NC(=O)c2cnn3cccnc23)c(-c2cc(Cl)ccc2OC(F)F)n1` [i], the “mouse IV clearance as % of mouse liver blood flow” value in data set [1] (single IV dose of 1 mg/kg) amounted to 6%. In addition, the “mouse intravenous (IV) clearance value” in data set [1] (single IV dose of 1 mg/kg via the tail vein, plasma) was 5.3 mL/min/kg.

For `CN(CC(F)(F)F)C1CCN(c2nc(-c3cc(Cl)ccc3OC(F)F)c(NC(=O)c3cnn4cccnc34)s2)CC1` [Example 198, N-[4-[5-chloro-2-(difluoromethoxy)phenyl]-2-[4-[methyl(2,2,2-trifluoroethyl)amino]-1-piperidyl]thiazol-5-yl]pyrazolo[1,5-a]pyrimidine-3-carboxamide], the “IV Mouse CL, % of liver blood flow” value in data set [1] (single IV dose of 1 mg/kg) is given as above 100%. In data set [1] (setting [6]), the clearance is 326 mL/min/kg. Also, the values for the Ki in data set [3] and in data set [4] were 2.17 nM and 2.72 nM, respectively. Besides, the EC50 in data set [5] stood at 29.1 nM.

Turning to `CCN1CCN(C(=O)Cn2cc(NC(=O)c3cnn4cccnc34)c(-c3cc(Cl)ccc3OC(F)F)n2)CC1` [Example 233, Pyrazolo[1,5-a]pyrimidine-3-carboxylic acid {3-(5-chloro-2-difluoromethoxy-phenyl)-1-[2-(4-ethyl-piperazin-1-yl)-2-oxo-ethyl]-1H-pyrazol-4-yl}-amide], the “IV Mouse CL, % of liver blood flow” value in data set [1] (single IV dose of 1 mg/kg) is given as above 100%. Also, the clearance in data set [1] (setting [6]) came to 153 mL/min/kg. The EC50 came out at 0.0181 µM in data set [2] and 10 nM in data set [5]. Also, the Ki worked out at 1.43 nM in data set [3] and 0.78 nM in data set [4].

For the compound `O=C(Nc1cn(CC(=O)N2CCC(O)CC2)nc1-c1cc(Cl)ccc1OC(F)F)c1cnn2cccnc12` [Example 278, N-[3-[5-chloro-2-(difluoromethoxy)phenyl]-1-[2-(4-hydroxy-1-piperidyl)-2-oxo-ethyl]pyrazol-4-yl]pyrazolo[1,5-a]pyrimidine-3-carboxamide], in data set [1] (single IV dose of 1 mg/kg), the “IV Mouse CL, % of liver blood flow” value was above 100%. Besides, the clearance in data set [1] (setting [6]) amounted to 133 mL/min/kg. For the same compound, the EC50 in data set [2] came out at 0.005 µM. For the same compound, the Ki in data set [3] came to 0.63 nM; in data set [4] it was 0.24 nM.

`O=C(Nc1cn(CCNCc2ccccc2)nc1-c1cc(Cl)ccc1OC(F)F)c1cnn2cccnc12` [Example 313, N-[1-[2-(benzylamino)ethyl]-3-[5-chloro-2-(difluoromethoxy)phenyl]-1H-pyrazol-4-yl]pyrazolo[1,5-a]pyrimidine-3-carboxamide]: the “IV Mouse CL, % of liver blood flow” value in data set [1] (single IV dose of 1 mg/kg) is recorded as 57%. In data set [1] (setting [6]), the clearance is 51 mL/min/kg. In data set [2], the EC50 amounted to 0.0218 µM. The Ki in data set [3] and in data set [4] was 0.21 nM throughout.

Regarding `CN(C)C1CCN(C(=O)Cn2cc(NC(=O)c3cnn4cccnc34)c(-c3cc(Cl)ccc3OC(F)F)n2)CC1` [Example 67, N-[3-[5-chloro-2-(difluoromethoxy)phenyl]-1-[2-[4-(dimethylamino)-1-piperidyl]-2-oxo-ethyl]pyrazol-4-yl]pyrazolo[1,5-a]pyrimidine-3-carboxamide], the “IV Mouse CL, % of liver blood flow” value in data set [1] (single IV dose of 1 mg/kg) was above 100%. Also, the clearance in data set [1] (setting [6]) came out at 205 mL/min/kg. In addition, the EC50 in data set [2] was found to be 0.0715 µM; in data set [5], 14.6 nM. For the same compound, the Ki in data set [4] turned out to be 0.89 nM.

`CSCCN1CCN(C(=O)Cn2cc(NC(=O)c3cnn4cccnc34)c(-c3cc(Cl)ccc3OC(F)F)n2)CC1` [Example 372, N-[3-[5-chloro-2-(difluoromethoxy)phenyl]-1-(2-[4-[2-(methylsulfanyl)ethyl]piperazin-1-yl]-2-oxoethyl)-1H-pyrazol-4-yl]pyrazolo[1,5-a]pyrimidine-3-carboxamide]: the “IV Mouse CL, % of liver blood flow” value in data set [1] (single IV dose of 1 mg/kg) is listed as above 100%. Further, the clearance in data set [1] (setting [6]) was determined as 93 mL/min/kg. In data set [2], the EC50 was 0.0197 µM. Further, the Ki is 0.51 nM in data set [3] and 0.25 nM in data set [4].

In the case of `CCOC(=O)CN1CCN(C(=O)Cn2cc(NC(=O)c3cnn4cccnc34)c(-c3cc(Cl)ccc3OC(F)F)n2)CC1` [Example 397, ethyl 2-[4-(2-[3-[5-chloro-2-(difluoromethoxy)phenyl]-4-[pyrazolo[1,5-a]pyrimidine-3-amido]-1H-pyrazol-1-yl]acetyl)piperazin-1-yl]acetate], the “IV Mouse CL, % of liver blood flow” value in data set [1] (single IV dose of 1 mg/kg) is recorded as above 100%. Further, in data set [1] (setting [6]), the clearance turned out to be 141 mL/min/kg. For the same compound, the EC50 in data set [2] was 0.027 µM. The Ki in data set [3] was 0.77 nM.

For `N#CC1(CNC2CCN(C(=O)Cn3cc(NC(=O)c4cnn5cccnc45)c(-c4cc(Cl)ccc4OC(F)F)n3)CC2)CC1` [Example 468, N-(3-(5-chloro-2-(difluoromethoxy)phenyl)-1-(2-(4-(((1-cyanocyclopropyl)methyl)amino)piperidin-1-yl)-2-oxoethyl)-1H-pyrazol-4-yl)pyrazolo[1,5-a]pyrimidine-3-carboxamide], the “IV Mouse CL, % of liver blood flow” value in data set [1] (single IV dose of 1 mg/kg) is above 100%. The clearance in data set [1] (setting [6]) was 140 mL/min/kg. The EC50 in data set [2] is 0.006 µM. Moreover, the values for the Ki in data set [3] and in data set [4] were 0.92 nM and 0.36 nM, respectively.

`CN(C)CCOC(=O)C1CCN(C(=O)Cn2cc(NC(=O)c3cnn4cccnc34)c(-c3cc(Cl)ccc3OC(F)F)n2)CC1` [Example 338, 2-(dimethylamino)ethyl 1-(2-[3-[5-chloro-2-(difluoromethoxy)phenyl]-4-[pyrazolo[1,5-a]pyrimidine-3-amido]-1H-pyrazol-1-yl]acetyl)piperidine-4-carboxylate]: in data set [1] (single IV dose of 1 mg/kg), the “IV Mouse CL, % of liver blood flow” value is above 100%. Besides, in data set [1] (setting [6]), the clearance was above 200 mL/min/kg. Besides, the EC50 in data set [2] came to 0.0177 µM. Also, the Ki in data set [3] was determined as 1.16 nM; in data set [4], 0.36 nM.

As for `O=C(Nc1cn(CC(=O)N2C[C@H]3CN(CC(F)(F)F)C[C@H]3C2)nc1-c1cc(Cl)ccc1OC(F)F)c1cnn2cccnc12` [Example 59, N-[1-[2-[(3aR,6aS)-2-(2,2,2-trifluoroethyl)-1,3,3a,4,6,6a-hexahydropyrrolo[3,4-c]pyrrol-5-yl]-2-oxo-ethyl]-3-[5-chloro-2-(difluoromethoxy)phenyl]pyrazol-4-yl]pyrazolo[1,5-a]pyrimidine-3-carboxamide], the “IV Mouse CL, % of liver blood flow” value in data set [1] (single IV dose of 1 mg/kg) was 43%. For the same compound, the clearance in data set [1] (setting [6]) was determined as 39 mL/min/kg. For the same compound, the results for the Ki in data set [3] and in data set [4] were 0.8 nM and 0.5 nM, respectively. Moreover, in data set [5], the EC50 was 3.7 nM.

As for `CC(C)(C#N)CNC1CCN(C(=O)Cn2cc(NC(=O)c3cnn4cccnc34)c(-c3cc(Cl)ccc3OC(F)F)n2)CC1` [Example 466, N-(3-(5-chloro-2-(difluoromethoxy)phenyl)-1-(2-(4-(2-cyano-2-methyl-propylamino)piperidin-1-yl)-2-oxoethyl)-1H-pyrazol-4-yl)pyrazolo[1,5-a]pyrimidine-3-carboxamide], in data set [1] (single IV dose of 1 mg/kg), the “IV Mouse CL, % of liver blood flow” value is listed as 80%. Moreover, the clearance in data set [1] (setting [6]) was 72 mL/min/kg. For the same compound, the EC50 in data set [2] worked out at 0.014 µM. For the same compound, the Ki in data set [3] is 0.74 nM; in data set [4], 0.27 nM.
